Laboratory results as given in patent publication US20250288509A1, “Composition for Promoting Photoprotection and Cutaneous Regeneration through Sequential Photonic Transfer (SPT)” (priority 2022, published 2025).

Experiments:
[1] = tested on: primary fibroblasts; experiment: Summary of examples: UVB radiation of primary fibroblasts; assay type: cell-based; settings: summary statement on the examples
[2] = Spectrofluorimetric quantification of emission in hydroalcoholic standard solutions; assay type: physicochemical
Text: (§1) For the in vitro validation of the Sequential Photonic Transfer (SPT) process, different molecules belonging to the groups of plant-derived compounds previously identified as potential targets have been selected. In particular, the selected molecules are morin and quercetin (flavonoids), cannabinol (CBN), cannabidiol (CBD), and cannabichromene (CBC) (cannabinoids), and chlorophyll A, which are fully representative examples of each target compound group. […] Flavonoids typically have absorption peaks around 260 and 380 nm, while cannabinoids have absorption peaks between 230 and 300 nm (FIG. 3A). […] For these compounds, their emission capacity at 460 nm (blue light) when excited by 280 and 320 nm light (UVB/A) and their emission capacity at 625 nm (red light) when excited by 460 nm light have been evaluated using spectrofluorimetry.
(§2) FIG. 3. […] Spectrofluorimetric quantification in hydroalcoholic standard solutions of emission at 460 nm (blue region of the electromagnetic spectrum) of different compounds after excitation at 280 or 320 nm (UVB/A) (C) and of emission at 625 nm (red region of the electromagnetic spectrum) after excitation at 460 nm (D) (Mn: Morin; Qc: Quercetin; CBD: cannabidiol; CBN: cannabinol; CBC: cannabichromene; Cl: chlorophyll A).

[3] = In vitro ROS production by colorimetric Nitro Blue Tetrazolium (NBT) oxidation in hydroalcoholic solution; settings: excited with UV light (310 nm), FIG. 4
Text: NBT is a specific molecular sensor for superoxide anion production, which is the first type of ROS produced during the reduction of molecular oxygen to generate water. In the presence of superoxide anion, NBT, a colorless molecule in its reduced state, oxidizes to form a chromophore with an absorption peak at 540 nm. The degree of oxidation, and therefore the absorbance at 540 nm, is directly proportional to ROS production. […] However, the combination of flavonoids/cannabinoids, chlorophyll A, and PpIX excited with UV light (310 nm) induces a potent and significant ROS production equivalent to that obtained by exciting PpIX with red light (FIG. 4).
FIG. 4. Quantification of in vitro ROS production measured as absorbance at 540 nm of Nitro Blue Tetrazolium (NBT) compound oxidized by […] production in hydroalcoholic solutions of different compound combinations under basal conditions or excited with UV (310 nm) or red (635 nm) light. Results are expressed as mean+/−standard deviation of three independent experiments. *, […]; ***, P≤0.01 (PpIX: Protoporphyrin IX; Mn: Morin; CBD: cannabidiol; Cl: chlorophyll A).

[4] = Continuous absorption spectra of flavonoids, cannabinoids and chlorophylls; assay type: physicochemical; settings: continuous absorption spectrum, FIG. 3A/3B
Text: as §1, §2

Structure (SMILES) | protection of cells from UVB radiation [1] | stimulation of proliferation and extracellular matrix protein synthesis [1] | emission at 460 nm (blue light) ([2]; excited by 280 and 320 nm light (UVB/A), FIG. 3C) | emission at 625 nm (red light) ([2]; excited by 460 nm light (blue), FIG. 3D) | ROS production (NBT oxidation, absorbance at 540 nm) [3] | absorption peaks [4]
C=Cc1c(C)c2cc3nc(c4c5[n-]c(cc6nc(cc1[n-]2)C(C)=C6CC)c(C)c5C(=O)[C@@H]4C(=O)OC)[C@@H](CCC(=O)OC/C=C(\C)CCC[C@H](C)CCC[C@H](C)CCCC(C)C)[C@@H]3C.[Mg+2] [chlorophyll A] | neither capable of protecting against UVB radiation | nor stimulating cells in any way | no emission of blue light | strong emission of red light | unable to induce significant NBT oxidation | around 450 nm
C=Cc1c(C)c2cc3nc(c4c5[n-]c(cc6nc(cc1[n-]2)C(C=O)=C6CC)c(C)c5C(=O)[C@@H]4C(=O)OC)[C@@H](CCC(=O)OC/C=C(\C)CCC[C@H](C)CCC[C@H](C)CCCC(C)C)[C@@H]3C.[Mg+2] [chlorophyll B] | – | – | – | – | – | around 450 nm
